How the values were obtained:
FGFR1 (h) = FGFR1 (h) (Homo sapiens, UniProt P11362); experiment: FGFR1 (enzymatic assay), TR-FRET; type: biochemical; conditions: read-out: FGFR 1 pIC50 (converted)
FGFR2 (h) = FGFR2 (h) (Homo sapiens, UniProt P21802); experiment: FGFR2 (enzymatic assay), TR-FRET; type: biochemical; conditions: enzymatic assay; read-out: FGFR 2 pIC50 (converted)
Outline: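 Compound (1% DMSO final) was combined with FGFR2 (h), 150 ng/ml, plus 0.4 μM ATP and 500 nM biotin-Flt3 in Mn2+-containing HEPES buffer at pH 7.5.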

FGFR3 (h) = FGFR3 (h) (Homo sapiens, UniProt P22607); experiment: FGFR3 (enzymatic assay), TR-FRET; type: biochemical; conditions: read-out: FGFR 3 pIC50 (converted)
Text: Time-Resolved Fluorescence Resonance Energy Transfer (TR-FRET) signal (ex340 nm.

FGFR4 (h) = FGFR4 (h) (Homo sapiens, UniProt P22455); experiment: FGFR4 (enzymatic assay), TR-FRET; type: biochemical; conditions: FGFR 4 pIC50, enzymatic assay
[1] = target: T1, Ba/F3-FGFR1-transfected cells (Homo sapiens, UniProt P11362); experiment: Ba/F3-FGFR1 (minus IL3) cellular proliferation assay, Alamar Blue; type: cell-based
T1 construct: BAF3-FGFR1 (MIN IL3) pIC50; other: minus IL3
Outline: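 Ba/F3 cells transfected with FGFR1 (20000 cells/well) were plated onto compound in phenol red-free RPMI-1640 with 10% FBS, 2 mM L-glutamine and gentamycin, then kept 24 h at 37 °C, 5% CO2. Alamar Blue (resazurin) was added for 4 h and fluorescence read at ex 540/em 590 nm.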

[2] = tested on: Ba/F3-FGFR1-transfected cells; experiment: Ba/F3-FGFR1 (plus IL3) cellular proliferation assay, counterscreen with 10 ng/ml murine IL3; type: cell-based; conditions: plus IL3 (10 ng/ml murine IL3, counterscreen); read-out: BAF3-FGFR1 (PLUS IL3) pIC50 (converted)
Outline: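 Ba/F3-FGFR1 cells (20000/well) in RPMI-1640 with 10% FBS exposed to compound for 24 h at 37° C., 5% CO2, then Alamar Blue (resazurin) added for 4 h; fluorescence read at ex 540/em 590 nm. Counterscreen run identically with 10 ng/ml murine IL3.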

[3] = target: T2, Ba/F3-FGFR3-transfected cells (Homo sapiens, UniProt P22607); experiment: Ba/F3-FGFR3 (minus IL3) cellular proliferation assay, Alamar Blue; type: cell-based
T2 construct: BAF3-FGFR3 (MIN IL3) pIC50; other: minus IL3
Outline: (§1)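 Ba/F3 cells transfected with FGFR3 were seeded at 20000 cells/well in phenol red-free RPMI-1640 with 10% FBS over compound in DMSO and kept 24 hours at 37° C, 5% CO2. Alamar Blue (resazurin) was then added for 4 hours and fluorescence read at ex 540/em 590 nm. The counterscreen repeated this with 10 ng/ml murine IL3.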

[4] = tested on: Ba/F3-FGFR3-transfected cells; experiment: Ba/F3-FGFR3 (plus IL3) cellular proliferation assay, counterscreen with 10 ng/ml murine IL3; type: cell-based; conditions: plus IL3 (10 ng/ml murine IL3, counterscreen); read-out: BAF3-FGFR3 (PLUS IL3) pIC50 (converted)
Outline: as §1

[5] = target: T3, Ba/F3-KDR-transfected cells (Homo sapiens, UniProt P35968); experiment: Ba/F3-KDR (minus IL3) cellular proliferation assay, Alamar Blue; type: cell-based
T3 construct: BAF3-KDR (MIN IL3) pIC50; other: minus IL3
Outline: (§2)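 Ba/F3-KDR-transfected cells, 20000 per well in phenol red free RPMI-1640 with 10% FBS, exposed to compound 24 hours at 37° C, 5% CO2; Alamar Blue then added for 4 hours and fluorescence read (ex. 540 nm, em. 590 nm). Plus-IL3 counterscreen run identically with 10 ng/ml murine IL3.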

[6] = tested on: Ba/F3-KDR-transfected cells; experiment: Ba/F3-KDR (plus IL3) cellular proliferation assay, counterscreen with 10 ng/ml murine IL3; type: cell-based; conditions: plus IL3 (10 ng/ml murine IL3, counterscreen); read-out: BAF3-KDR (PLUS IL3) pIC50 (converted)
Outline: as §2

T1 sequence (P11362 whole entry, change not shown): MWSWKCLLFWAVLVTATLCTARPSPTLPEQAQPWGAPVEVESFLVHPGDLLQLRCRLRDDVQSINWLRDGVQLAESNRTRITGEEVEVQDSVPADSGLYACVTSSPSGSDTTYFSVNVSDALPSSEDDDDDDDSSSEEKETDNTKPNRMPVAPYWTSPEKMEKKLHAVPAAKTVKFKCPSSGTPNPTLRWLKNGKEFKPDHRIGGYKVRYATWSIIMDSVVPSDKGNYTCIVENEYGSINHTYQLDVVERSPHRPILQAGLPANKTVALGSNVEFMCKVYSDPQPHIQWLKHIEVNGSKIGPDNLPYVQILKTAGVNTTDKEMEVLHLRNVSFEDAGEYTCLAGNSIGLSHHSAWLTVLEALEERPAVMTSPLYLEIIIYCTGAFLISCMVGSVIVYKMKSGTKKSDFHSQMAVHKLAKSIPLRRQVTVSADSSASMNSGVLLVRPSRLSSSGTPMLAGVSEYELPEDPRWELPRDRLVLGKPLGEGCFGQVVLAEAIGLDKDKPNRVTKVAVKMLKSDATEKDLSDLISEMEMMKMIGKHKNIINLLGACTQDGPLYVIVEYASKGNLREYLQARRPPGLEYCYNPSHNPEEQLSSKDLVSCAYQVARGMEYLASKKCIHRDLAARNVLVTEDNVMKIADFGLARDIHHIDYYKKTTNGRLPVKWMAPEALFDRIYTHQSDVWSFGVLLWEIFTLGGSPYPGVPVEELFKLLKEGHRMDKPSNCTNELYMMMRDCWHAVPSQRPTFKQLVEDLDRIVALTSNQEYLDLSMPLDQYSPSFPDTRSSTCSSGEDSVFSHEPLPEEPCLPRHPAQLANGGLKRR
Sequence of FGFR1 (h) (P11362 22-822): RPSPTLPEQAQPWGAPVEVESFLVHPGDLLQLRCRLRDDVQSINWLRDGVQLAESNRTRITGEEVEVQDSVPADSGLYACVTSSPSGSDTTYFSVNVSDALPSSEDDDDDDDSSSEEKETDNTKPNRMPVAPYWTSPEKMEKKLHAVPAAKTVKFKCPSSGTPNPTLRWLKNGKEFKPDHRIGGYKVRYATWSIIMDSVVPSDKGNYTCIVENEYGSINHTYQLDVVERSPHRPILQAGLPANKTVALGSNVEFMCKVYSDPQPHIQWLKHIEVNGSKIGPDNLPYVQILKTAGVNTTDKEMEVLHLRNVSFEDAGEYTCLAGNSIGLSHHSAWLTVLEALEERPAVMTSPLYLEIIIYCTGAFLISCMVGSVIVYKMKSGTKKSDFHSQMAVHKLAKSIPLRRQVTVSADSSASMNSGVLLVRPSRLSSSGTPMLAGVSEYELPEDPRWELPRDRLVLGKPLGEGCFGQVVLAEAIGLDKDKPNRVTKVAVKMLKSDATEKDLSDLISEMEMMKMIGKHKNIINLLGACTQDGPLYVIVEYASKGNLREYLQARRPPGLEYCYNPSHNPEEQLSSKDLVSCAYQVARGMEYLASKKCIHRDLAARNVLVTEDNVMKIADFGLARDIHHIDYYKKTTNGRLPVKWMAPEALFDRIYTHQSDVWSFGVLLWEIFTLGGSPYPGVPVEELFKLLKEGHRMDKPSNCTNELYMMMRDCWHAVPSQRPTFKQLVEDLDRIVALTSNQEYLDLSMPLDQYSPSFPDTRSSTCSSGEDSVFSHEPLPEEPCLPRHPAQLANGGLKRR
Sequence of FGFR3 (h) (P22607 23-806): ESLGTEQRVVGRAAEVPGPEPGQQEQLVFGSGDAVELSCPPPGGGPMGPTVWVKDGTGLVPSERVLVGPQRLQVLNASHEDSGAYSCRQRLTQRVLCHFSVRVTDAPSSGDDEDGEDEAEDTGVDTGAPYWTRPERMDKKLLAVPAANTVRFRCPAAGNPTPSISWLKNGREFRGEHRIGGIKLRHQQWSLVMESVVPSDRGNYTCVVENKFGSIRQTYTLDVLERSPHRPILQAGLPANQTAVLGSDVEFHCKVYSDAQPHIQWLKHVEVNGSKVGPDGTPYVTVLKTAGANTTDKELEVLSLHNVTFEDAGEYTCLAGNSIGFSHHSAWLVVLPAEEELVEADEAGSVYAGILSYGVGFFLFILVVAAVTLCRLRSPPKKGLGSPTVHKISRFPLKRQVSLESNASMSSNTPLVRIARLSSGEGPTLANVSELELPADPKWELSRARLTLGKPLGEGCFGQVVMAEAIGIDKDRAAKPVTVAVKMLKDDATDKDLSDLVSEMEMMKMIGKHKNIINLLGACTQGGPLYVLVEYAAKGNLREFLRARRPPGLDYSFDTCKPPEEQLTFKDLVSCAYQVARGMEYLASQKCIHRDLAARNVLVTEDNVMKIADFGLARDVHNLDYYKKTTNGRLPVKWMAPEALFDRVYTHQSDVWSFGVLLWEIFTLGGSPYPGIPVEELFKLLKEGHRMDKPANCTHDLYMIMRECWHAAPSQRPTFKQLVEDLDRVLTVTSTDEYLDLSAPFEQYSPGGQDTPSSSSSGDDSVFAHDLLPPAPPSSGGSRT
Sequence of FGFR2 (h) (P21802 22-821): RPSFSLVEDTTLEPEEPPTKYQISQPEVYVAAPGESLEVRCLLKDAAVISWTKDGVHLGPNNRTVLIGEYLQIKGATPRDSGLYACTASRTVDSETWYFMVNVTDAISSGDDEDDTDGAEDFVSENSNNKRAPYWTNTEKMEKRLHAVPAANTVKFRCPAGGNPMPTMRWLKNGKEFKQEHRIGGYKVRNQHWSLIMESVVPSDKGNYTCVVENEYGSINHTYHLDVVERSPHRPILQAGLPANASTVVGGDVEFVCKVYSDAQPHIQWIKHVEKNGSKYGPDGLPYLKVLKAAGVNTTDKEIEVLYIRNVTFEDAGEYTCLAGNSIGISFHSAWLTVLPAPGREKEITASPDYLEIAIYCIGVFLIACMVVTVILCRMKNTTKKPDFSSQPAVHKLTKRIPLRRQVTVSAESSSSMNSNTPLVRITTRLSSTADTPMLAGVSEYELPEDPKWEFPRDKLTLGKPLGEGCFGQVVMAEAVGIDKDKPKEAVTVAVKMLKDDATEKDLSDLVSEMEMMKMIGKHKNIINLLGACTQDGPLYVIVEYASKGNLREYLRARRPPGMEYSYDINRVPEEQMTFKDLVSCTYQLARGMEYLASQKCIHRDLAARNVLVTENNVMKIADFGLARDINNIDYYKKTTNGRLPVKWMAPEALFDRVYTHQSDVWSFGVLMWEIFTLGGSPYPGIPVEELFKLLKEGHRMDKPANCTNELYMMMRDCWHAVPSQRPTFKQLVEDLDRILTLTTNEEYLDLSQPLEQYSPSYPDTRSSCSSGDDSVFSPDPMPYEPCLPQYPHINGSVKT
T3 sequence (P35968 whole entry, change not shown): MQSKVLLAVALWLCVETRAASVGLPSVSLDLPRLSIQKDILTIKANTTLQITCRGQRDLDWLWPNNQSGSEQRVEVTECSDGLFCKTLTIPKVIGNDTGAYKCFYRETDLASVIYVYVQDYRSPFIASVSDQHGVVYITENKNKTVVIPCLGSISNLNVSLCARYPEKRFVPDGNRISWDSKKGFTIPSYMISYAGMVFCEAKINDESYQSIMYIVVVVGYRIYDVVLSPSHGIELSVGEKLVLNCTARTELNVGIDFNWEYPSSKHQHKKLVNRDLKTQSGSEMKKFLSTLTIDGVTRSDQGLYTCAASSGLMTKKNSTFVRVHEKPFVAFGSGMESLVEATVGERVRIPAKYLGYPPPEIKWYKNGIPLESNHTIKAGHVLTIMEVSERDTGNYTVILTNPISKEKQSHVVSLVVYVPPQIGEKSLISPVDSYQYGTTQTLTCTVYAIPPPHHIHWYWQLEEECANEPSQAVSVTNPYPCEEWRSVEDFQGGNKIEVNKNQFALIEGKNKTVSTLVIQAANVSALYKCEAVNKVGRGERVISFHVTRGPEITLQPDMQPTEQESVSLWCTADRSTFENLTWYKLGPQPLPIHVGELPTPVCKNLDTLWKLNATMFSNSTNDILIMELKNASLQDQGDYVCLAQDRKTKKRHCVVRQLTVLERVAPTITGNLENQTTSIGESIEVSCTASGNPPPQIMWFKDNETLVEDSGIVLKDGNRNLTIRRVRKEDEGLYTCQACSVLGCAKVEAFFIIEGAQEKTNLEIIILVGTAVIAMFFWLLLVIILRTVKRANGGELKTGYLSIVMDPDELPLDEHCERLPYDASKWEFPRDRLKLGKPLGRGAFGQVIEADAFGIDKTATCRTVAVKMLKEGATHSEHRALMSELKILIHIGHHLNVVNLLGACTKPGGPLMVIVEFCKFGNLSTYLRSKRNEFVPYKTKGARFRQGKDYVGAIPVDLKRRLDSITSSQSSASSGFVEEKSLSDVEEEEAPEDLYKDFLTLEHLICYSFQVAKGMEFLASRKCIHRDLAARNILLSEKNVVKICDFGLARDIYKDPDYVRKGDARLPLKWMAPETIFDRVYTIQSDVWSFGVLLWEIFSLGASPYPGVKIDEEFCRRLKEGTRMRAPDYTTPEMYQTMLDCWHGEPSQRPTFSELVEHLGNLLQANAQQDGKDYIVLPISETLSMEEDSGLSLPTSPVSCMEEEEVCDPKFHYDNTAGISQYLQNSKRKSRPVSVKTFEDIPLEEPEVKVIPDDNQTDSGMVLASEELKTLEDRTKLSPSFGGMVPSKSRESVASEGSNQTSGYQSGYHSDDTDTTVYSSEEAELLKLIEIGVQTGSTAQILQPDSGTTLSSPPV

SMILES	IC50 (FGFR1 (h)) [nM]	IC50 (FGFR2 (h)) [nM]	IC50 (FGFR3 (h)) [nM]	IC50 (FGFR4 (h)) [nM]	BAF3-FGFR1 (MIN IL3) pIC50 [1]	IC50 [2] [µM]	BAF3-FGFR3 (MIN IL3) pIC50 [3]	IC50 [4] [µM]	BAF3-KDR (MIN IL3) pIC50 [5]	IC50 [6] [µM]
COc1cc(OC)c(F)c(N(Cc2ncc[nH]2)c2ccc3ncc(-c4cnn(C5COC5)c4)nc3n2)c1 [Compound 253]	0.603	1.82	1.35	1.91	8.61	> 10	~8.63	> 10	6.32	> 10
COc1cc(OC)c(F)c(N(Cc2c[nH]nn2)c2ccc3ncc(-c4cnn(C)c4)nc3n2)c1 [Compound 258]	0.55	1.45	0.676	1.32	7.38	> 10	7.91	> 10	6.02	> 10
COc1cc(OC)c(F)c(N(CC2CCC(=O)N2)c2ccc3ncc(-c4cnn(C5CNC5)c4)nc3n2)c1 (stereo not shown) [Compound 299]	1.78	4.68	3.55	8.91	6.05	> 10	5.94	> 10	<5	> 10
COc1cc(/N=c2\ccc3ncc(-c4cnn(C)c4)nc3n2CC2CC(O)C(=O)N2)cc(OC)c1 (stereo not shown) [Compound 272]	0.977	2.57	1.45	5.25	6.54	> 10	6.73	> 10	5.68	> 10
COc1cc(OC)cc(N(CC2CC(O)C(=O)N2)c2ccc3ncc(-c4cnn(C)c4)nc3n2)c1 (stereo not shown) [Compound 271]	4.57	3.98	2.45	7.76	6.02	> 10	6.27	> 10	<5	> 10
CNC(=O)c1cc(F)cc(N(Cc2ncc[nH]2)c2ccc3ncc(-c4cnn(C)c4)nc3n2)c1 [Compound 261]	1.48	~2.82	1.91	6.03	7.61	> 10	~7.74	> 10	6.01	> 10
COc1cc(OC)cc(N(CC(O)COC(C)C)c2ccc3ncc(-c4cnn(CC(O)COC(C)C)c4)nc3n2)c1 (stereo not shown) [Compound 250]	4.17	6.03	4.79	8.71	6.45	> 10	~7.09	> 10	5.16	> 10
COc1cc(OC)c(F)c(N(CC(O)c2cnn(C)c2)c2ccc3ncc(-c4cnn(C)c4)nc3n2)c1 (stereo not shown) [Compound 244]	5.89	5.01	4.07	16.2	6.76	> 10	6.73	> 10	5.03	> 10
COc1cc(OC)c(F)c(N(CC(=O)NC(C)C)c2ccc3ncc(-c4cnn(C)c4)nc3n2)c1 [Compound 249]	3.89	4.79	7.59	33.1	6.70	> 10	6.83	> 10	5.09	> 10
COc1cc(OC)c(F)c(N(CC2CC(O)C(=O)N2)c2ccc3ncc(-c4cnn(C)c4)nc3n2)c1 (stereo not shown) [Compound 269]	1.62	3.24	2.14	3.09	6.72	> 10	~7.1	> 10	5.12	> 10
COCC(O)Cn1/c(=N/c2cc(OC)cc(OC)c2F)ccc2ncc(-c3cnn(C)c3)nc21 (single isomer, unassigned) [Compound 60]	0.741	1	0.525	0.724	8.43	> 10	8.15	> 10	6.58	> 10
COc1cc(OC)c(F)c(N(CC(C)(C)O)c2ccc3ncc(-c4cnn(C)c4)nc3n2)c1F [Compound 278]	1.62	4.17	2.95	4.9	7.45	> 10	7.73	> 10	5.92	> 10
COc1cc(/N=c2\ccc3ncc(-c4cnn(CC(C)(C)O)c4)nc3n2CC2CCC(=O)N2)c(F)c(OC)c1 (stereo not shown) [Compound 286]	~1.55	2.04	1.35	3.89	7.07	> 10	7.66	> 10	6.23	> 10
